# Test: photoluminescence quantum yield (fraction); solvent given as SMILES
smiles,measurement,setting,value
COc1ncccc1B(O)O,photoluminescence quantum yield,in C1COCCO1,0.423
same,photoluminescence quantum yield,in CC(C)O,0.549
same,photoluminescence quantum yield,in CCCCCC,0.502
same,photoluminescence quantum yield,in CCCCCCC,0.689
same,photoluminescence quantum yield,in CCCCCCCC,0.701
same,photoluminescence quantum yield,in CCCCCCCCO,0.317
same,photoluminescence quantum yield,in CCO,0.783
same,photoluminescence quantum yield,in CO,0.518
CC(C)(C)NC(=O)c1cccc2ccc3c4ccc(Cl)cc4c4cc(Cl)ccc4c3c12,photoluminescence quantum yield,in ClCCl,0.02
CCCCCCCCc1ccc(-n2c3c(c4c2c2c(n4-c4ccc(CCCCCCCC)cc4)-c4ccccc4NB2c2ccccc2)B(c2ccccc2)Nc2ccccc2-3)cc1,photoluminescence quantum yield,in Cc1ccccc1,0.7
CSc1ccc(/C=C/c2ccncn2)cc1,photoluminescence quantum yield,in ClCCl,0.01
COC(=O)c1[nH]c(-c2ccc(Br)cc2)c2nnc3ccc(OC)cc3c12,photoluminescence quantum yield,in ClCCl,0.114
CC1(C)c2ccccc2-n2c(-c3ccc(N4c5ccccc5Sc5ccccc54)cc3)nc3cccc1c32,photoluminescence quantum yield,in Cc1ccccc1,0.08
same,photoluminescence quantum yield,in O=P(c1ccccc1)(c1ccccc1)c1ccccc1Oc1ccccc1P(=O)(c1ccccc1)c1ccccc1,0.05
CCC1(CC)c2ccccc2-c2c1c1c(c3c2C(CC)(CC)c2cc(B(c4c(C)cc(C)cc4C)c4c(C)cc(C)cc4C)ccc2-3)C(CC)(CC)c2cc(B(c3c(C)cc(C)cc3C)c3c(C)cc(C)cc3C)ccc2-1,photoluminescence quantum yield,in C1CCOC1,0.4
Cc1ccc2nnn(-c3c(C#N)c4c(N)ncnc4n3[C@H]3C[C@H](O)[C@@H](CO)O3)c2c1,photoluminescence quantum yield,in CO,0.007
Cc1ccc(O)c(-c2[nH]c(=O)n3c2-c2ccccc2C3=O)c1,photoluminescence quantum yield,in CC#N,0.51
same,photoluminescence quantum yield,in CO,0.25
same,photoluminescence quantum yield,in ClCCl,0.62
CC(C)(C)c1ccc(-c2c3cccc4c(-c5ccccc5)cc5c(-c6ccc(C(C)(C)C)cc6)c6cccc7c(-c8ccccc8)cc2c(c76)c5c43)cc1,photoluminescence quantum yield,in ClCCl,0.26
CCCN1c2ccccc2Sc2cc(/C=C\c3cc(=O)oc4cc(NC(=O)OCC)ccc34)ccc21,photoluminescence quantum yield,in ClC(Cl)Cl,0.62
COc1ccc(-c2n[n+]3c(s2)N=C(c2ccccc2)O[B-]3(F)F)cc1,photoluminescence quantum yield,in Cc1ccccc1,0.16
COc1ccc2cc(/C=C/c3ccc([N+](=O)[O-])cc3)c(=O)oc2c1,photoluminescence quantum yield,in CC#N,0.24
C/C=C/C=C/C1=NC(=C\c2ccc(O)cc2)/C(=O)N1C,photoluminescence quantum yield,in ClC(Cl)Cl,0.01
same,photoluminescence quantum yield,in O,0.0008
Cc1cc(C)c(B(c2ccc(N3c4ccccc4C(C)(C)c4ccccc43)cc2)c2c(C)cc(C)cc2C)c(C)c1,photoluminescence quantum yield,in Cc1ccccc1,0.89
N#Cc1nc2cnc(N)nc2n1Cc1ccccc1,photoluminescence quantum yield,in C1COCCO1,0.34
same,photoluminescence quantum yield,in CC#N,0.31
same,photoluminescence quantum yield,in CO,0.64
same,photoluminescence quantum yield,in ClCCl,0.2
same,photoluminescence quantum yield,in O,0.88
CCN(CC)c1ccc(-c2nc3cc(C(NC(=O)OC(C)(C)C)C(=O)OC)ccc3o2)c(O)c1 (centres undefined),photoluminescence quantum yield,in CC1CCCCC1,0.11
same,photoluminescence quantum yield,in CC#N,0.43
same,photoluminescence quantum yield,in CO,0.08
CC(C)[Si](C#Cc1c2ccccc2c(C#C[Si](C(C)C)(C(C)C)C(C)C)c2nc3c(ccc4cc5ccccc5cc43)nc12)(C(C)C)C(C)C,photoluminescence quantum yield,in CCCCCC,0.12
c1ccc(-c2nc(-c3ccc(-c4cccs4)s3)[nH]c2-c2ccccc2)cc1,photoluminescence quantum yield,in CC#N,0.24
O=c1[nH]c(=O)n([C@@H]2O[C@H](CO)[C@@H](O)[C@H]2O)cc1-c1cc2ccccc2s1,photoluminescence quantum yield,in C1COCCO1,0.06
same,photoluminescence quantum yield,in CC#N,0.034
same,photoluminescence quantum yield,in CO,0.047
same,photoluminescence quantum yield,in O,0.035
c1ccc2cc3cnccc3cc2c1,photoluminescence quantum yield,in CCO,0.6
Cc1c(C)n2c(COC(=O)c3ccccc3I)c(C)c(=O)n2c1=O,photoluminescence quantum yield,in CCO,0.634
O=C1c2cccc3c(-n4c5ccccc5c5ccccc54)ccc(c23)C(=O)N1c1ccccc1,photoluminescence quantum yield,in C1CCOC1,0.032
same,photoluminescence quantum yield,in CCCCCC,0.887
same,photoluminescence quantum yield,in ClC(Cl)Cl,0.198
same,photoluminescence quantum yield,in ClCCl,0.032
C(=C\c1ncccn1)/c1ccc(-c2ccc(N(c3ccccc3)c3ccccc3)cc2)cc1,photoluminescence quantum yield,in ClCCl,0.6
C=Cc1cc2cc3c(cc2oc1=O)OCO3,photoluminescence quantum yield,in CC#N,0.65
CCCC1(CCC)c2cc(-c3ccc4c(c3)C(CCC)(CCC)c3cc(-c5ccc6c(c5)C(CCC)(CCC)c5cc(C(C)(C)CC)ccc5-6)ccc3-4)ccc2-c2ccc(-c3ccc4c(c3)C(CCC)(CCC)c3cc(C(C)(C)CC)ccc3-4)cc21,photoluminescence quantum yield,in C1CCCCC1,0.98
Cc1cc(C)c(B2c3cc(C(C)(C)C)ccc3-c3cccc4cc(C(C)(C)C)cc2c34)c(C)c1,photoluminescence quantum yield,in C1CCCCC1,0.8
F[B-]12OC(c3ccccc3)=Nc3cccc([n+]31)N=C(c1ccccc1)O2,photoluminescence quantum yield,in ClCCl,0.2
CCC1=C(C)C2C(c3ccc(-c4ccc(-c5nc6c7ccccc7c7ccccc7c6n5-c5ccc(C(C)(C)C)cc5)cc4)cc3)c3c(C)c(CC)c(C)n3[B-](F)(F)[N+]2=C1C (centres undefined),photoluminescence quantum yield,in ClC(Cl)Cl,0.672
Cc1cc(C)c(C2=C3C=C(c4ccccc4)C(c4ccccc4)=[N+]3[B-](F)(F)n3c2cc(-c2ccccc2)c3-c2ccccc2)c(C)c1,photoluminescence quantum yield,in C1CCCCC1,0.94
same,photoluminescence quantum yield,in C1CCOC1,0.9
same,photoluminescence quantum yield,in CC#N,0.87
same,photoluminescence quantum yield,in Cc1ccccc1,0.75
same,photoluminescence quantum yield,in ClCCl,0.74
CCCCCCCCN(CCCCCCCC)c1ccc(/C=C/c2ccc(C#Cc3ccc(-c4ccc(C#Cc5ccc(/C=C/c6ccc(N(CCCCCCCC)CCCCCCCC)cc6)cc5)cc4)cc3)cc2)cc1,photoluminescence quantum yield,in Cc1ccccc1,0.5
CCN(CC)c1ccc2cc(-c3nc4c5ccccc5c5ccccc5c4n3-c3ccc(C(C)(C)C)cc3)c(=O)oc2c1,photoluminescence quantum yield,in ClCCl,0.97

# From the Deep4Chem optical property database
